In patent US10701936B2, “Herbicidal composition and method for controlling weeds” (Sumitomo Chemical Company, Limited, priority 2016, dated 2020):

Columns and labels:
Echinochloa crus-galli = assay: Herbicidal effect, foliar spray pot test in greenhouse (Example 102); type: in vivo; conditions: sprayed at 2-3 leaf stage, a week after, scale 0-100
Procedure: (§1) A plastic pot was filled with a commercially-available culture soil, and thereto inubie (common barnyardgrass; Echinochloa crus-galli) or akinoenokorogusa (giant foxtail; Setaria faberi) was seeded, and covered with the soil to about 0.5 cm, followed by growing the weeds in a greenhouse. When the weeds grew to two to three leaf stage, a spray liquid of the compound X, a spray liquid of 2,4-D choline salt, or a spray liquid of the present composition was uniformly sprayed to the whole plants so that the application rate might be a predetermined value. The spray liquid of the present composition was prepared by mixing the spray liquid of the compound X with the spray liquid of 2,4-D choline salt. The spray liquid of the compound X was prepared by mixing a predetermined amount of the formulation X with deionized water. The spray liquid of 2,4-D choline salt was prepared by dissolving 2,4-D choline salt with a 2 wt % solution of TWEEN® 20 (polyoxyethylenesorbitan fatty acid ester, manufactured by MP Biomedicals) in dimethylformamide, followed by mixing with deionized water. After applying the spray liquid, the plants were placed in a greenhouse for a week. A herbicidal effect was evaluated by classifying the effect into 101 stages from 0 (no effect) to 100 (completely dead).
(§2) The expected value of the herbicidal effect in the case of mixed use was calculated from the result of the herbicidal effect in the case of single use of each of the compounds (the value of A or B) according to the formula of Colby ((expected value)=100−(100−A)×(100−B)/100).

Setaria faberi = assay: as above; type: in vivo; conditions: sprayed at 2-3 leaf stage, a week after, scale 0-100
Procedure: as §1, §2

[1] = 2,4-D choline salt 50 g/ha alone
[2] = 2,4-D choline salt 500 g/ha alone

Q: Which results are given for C[N+](C)(C)CCO.O=C([O-])COc1ccc(Cl)cc1Cl [2,4-D choline salt]?
A: Herbicidal effect on Echinochloa crus-galli (observed value) (Echinochloa crus-galli; [1]): 0; Herbicidal effect on Echinochloa crus-galli (observed value) (Echinochloa crus-galli; [2]): 10; Herbicidal effect on Setaria faberi (observed value) (Setaria faberi; [1]): 0; Herbicidal effect on Setaria faberi (observed value) (Setaria faberi; [2]): 10

Q: What does the source list for CCOC(=O)COc1ncccc1Oc1cc(-n2c(=O)cc(C(F)(F)F)n(C)c2=O)c(F)cc1Cl [Compound X, ethyl [3-[2-chloro-4-fluoro-5-(1-methyl-6-trifluoromethyl-2,4-dioxo-1,2,3,4-tetrahydropyrimidin-3-yl)phenoxy]-2-pyridyloxy]acetate]?
A: Herbicidal effect on Echinochloa crus-galli (observed value) (Echinochloa crus-galli; Compound X 5 g/ha alone): 20; Herbicidal effect on Echinochloa crus-galli (observed value) (Echinochloa crus-galli; Compound X 10 g/ha alone): 35; Herbicidal effect on Setaria faberi (observed value) (Setaria faberi; Compound X 5 g/ha alone): 30; Herbicidal effect on Setaria faberi (observed value) (Setaria faberi; Compound X 10 g/ha alone): 45
